Columns and labels:
[1] = system: S. aureus (ATCC # 6538); experiment: Time kill activity (ASTM E 2315), log reduction; format: cell-based; conditions: 30 seconds
Experimental: (§1) In this test, a diluted aliquot of the composition is brought into contact with a known population of test bacteria for a specified time period at a specified temperature. The test composition is neutralized at the end of the time period, which arrests the antimicrobial activity of the composition. The percent or, alternatively, log reduction from the original bacteria population is calculated. In general, the time kill method is known to those skilled in the art. […] The choice of which concentration to use is at the discretion of the investigator, and suitable concentrations are readily determined by those skilled in the art. All testing if performed in triplicate, the results are combined, and the average log reduction is reported. • (c) The choice of contact time period also is at the discretion of the investigator. Any contact time period can be chosen. Typical contact times range from 10 second to 5 minutes, with 30 seconds and 1 minute being typical contact times. The contact temperature also can be any temperature, typically room temperature, or about 25 degrees Celsius. • (d) The microbial suspension, or test inoculum, is prepared by growing a microbial culture on any appropriate solid media (e.g., agar). The microbial population then is washed from the agar with sterile physiological saline and the population of the microbial suspension is adjusted to about 10^8 colony forming units per ml (cfu/ml). • (e) The table below lists the test microbial cultures used in the following tests and includes the name of the bacteria, the ATCC (American Type Culture Collection) identification number, and the abbreviation for the name of the organism used hereafter.
(§2) The log reduction is calculated using the formula: Log reduction=log10(numbers control)−log10(test sample survivors). Foam Height Determination

[2] = system: E. coli (ATCC # 112229); experiment: Time kill activity (ASTM E 2315), log reduction; format: cell-based, Escherichia coli; conditions: 30 seconds
Experimental: as §1, §2

[3] = active at 0.65% w/w in the composition of formulation example 15, pH 6.25
[4] = active at 2% w/w in the composition of formulation example 15, pH 6.25
[5] = active at 4% w/w in the composition of formulation example 15, pH 6.25

Row | Molecule | S. Aureus log reduction [1, 3] | E. coli log reduction [2, 3] | S. Aureus log reduction [1, 4] | S. Aureus log reduction [1, 5] | E. coli log reduction [2, 4] | E. coli log reduction [2, 5]
1 | Polyhexamethylene Biguanide | 3.10 | >5.73 |  |  |  | 
2 | CC(C)(C)CC(C)(C)c1ccc(OCCOCC[N+](C)(C)Cc2ccccc2)cc1 [Benzethonium Chloride] | >5.39 | >5.73 |  |  |  | 
3 | N=C(NCCCCCCNC(=N)NC(=N)Nc1ccc(Cl)cc1)NC(=N)Nc1ccc(Cl)cc1.O=C(O)[C@H](O)[C@@H](O)[C@H](O)[C@H](O)CO.O=C(O)[C@H](O)[C@@H](O)[C@H](O)[C@H](O)CO [Chlorohexidine Gluconate] |  |  | >5.39 | >5.39 | >5.73 | >5.73
4 | CCCCCCCCCC[N+](C)(C)CCCCCCCCCC.[Cl-] [Didecyl Dimethyl Ammonium Chloride] | >5.39 | >5.73 |  |  |  | 
